The term Emax denotes the maximal effect, on the per cent scale that the assay sets.

In this experiment the target is T1, GCase (GBA) in human fibroblast cell line GM10915 harboring the L444P GBA mutation (Homo sapiens, UniProt P04062, L483P).
T1 construct: Human fibroblast cell line GM10915 harboring the L444P GBA mutation; host or cells: GM10915 human fibroblasts
T1 sequence (P04062 40-536 L483P): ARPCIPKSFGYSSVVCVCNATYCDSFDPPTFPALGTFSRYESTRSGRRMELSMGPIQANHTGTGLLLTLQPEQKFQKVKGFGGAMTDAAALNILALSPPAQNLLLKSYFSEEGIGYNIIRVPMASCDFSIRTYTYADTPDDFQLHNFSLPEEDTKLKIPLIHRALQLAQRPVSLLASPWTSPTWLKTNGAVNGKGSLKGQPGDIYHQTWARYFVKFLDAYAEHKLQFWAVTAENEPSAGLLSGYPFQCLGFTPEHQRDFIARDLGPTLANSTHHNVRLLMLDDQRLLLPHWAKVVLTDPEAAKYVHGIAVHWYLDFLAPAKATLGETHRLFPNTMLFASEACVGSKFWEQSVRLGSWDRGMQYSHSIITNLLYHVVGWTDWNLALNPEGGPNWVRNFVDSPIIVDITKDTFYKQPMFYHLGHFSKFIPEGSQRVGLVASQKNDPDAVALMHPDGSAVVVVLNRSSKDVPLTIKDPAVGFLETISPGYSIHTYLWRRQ
In words: GCase activity assay (4-MUG substrate, normalised to crystal violet staining) in L444P GBA fibroblasts. The experiment is classed as cell-based. The following applies: 5 days exposure; for GBA EC1.5: concentration giving 150% GCase activity (1.5-fold induction), 8-point dose range; for Emax: maximum percent GCase activity relative to untreated cells in the dose range tested. As for the experimental part: Human fibroblast cell line GM10915 harboring the L444P GBA mutation was obtained from Coriell Biorepositories.
All chemicals (Glacial acetic acid, Glycine, 4-Methylumbelliferyl b-D-glucopyranoside (4-MUG), Sodium acetate trihydrate, Sodium hydroxide, Crystal violet, SDS, Ammonium hydroxide) were obtained from Sigma-Aldrich (Denmark) Compounds tested for GCase activity were dissolved in H2O or DMSO.
The GM10915 cell line was cultured under standard cell culture conditions (37° C. and 5% CO2) in complete DMEM medium supplemented with nonessential amino acids (NEAA), 1% Pen-Strep and 12% FCS. Cells were seeded at a density of 10^4 cells/well in 100 μL complete medium in one black 96-well plate for glucosylceramidase (GCase) activity measurement and in one clear 96-well plate for crystal violet staining to correct for cell density. Crystal violet staining is performed to obtain quantitative information about the relative density of cells adhering to multi-wells plates.
The assay was adapted from Sawkar et al (2002) and briefly described in the following. The day after seeding of cells, the medium was replaced with fresh medium containing the compounds to be tested. Compounds were tested in duplicate and in an 8-point diluted dose range to obtain a dose response. Cells were exposed with compounds for five days. Fresh compound was added every 2-3 days. PBS was included to define the basal level of GCase activity.
Cells were washed three times with 200 μL PBS per well and 50 μL of 2.5 mM 4-MUG buffer (4-MUG dissolved in 0.2 M acetate buffer pH 4.0) was added and the cells were incubated at 37° C., 5% CO2 for 23 hours. The reaction was stopped by adding 150 μL 0.2 M glycine buffer (pH 10.8). Fluorescence was measured with a Varioskan® Flash reader (Thermo Scientific) at an excitation/emission setting of 365/445 nm.
Cells were treated with compounds in a parallel setup identical to the setup to test for GCase activity. At the end of compound treatment, cells were washed once with 200 μL PBS per well and 50 μL 0.1% w/v crystal violet (in H2O) was added. Following 10 min. of incubation, the crystal violet solution was removed, and the cells were washed three times with 200 μL PBS and 100 μL 1% SDS was added to solubilize the stain. The plate was agitated on an orbital shaker for 10-30 min. Absorbance (A) is measured at […] using a Varioskan® Flash reader (Thermo Scientific).
The fluorescence signal (F) derived from the GCase measurement is normalized to the absorbance signal (A) derived from the crystal violet staining. The percent GCase activity resulting from compound treatment is calculated relative to the basal activity obtained from untreated cells.
Maximal effect of compounds (Emax) is determined from the dose response effects as the maximum “Percent GCase activity” achieved in the dose range tested.

On to `CC1NCCC1C1=NOCC(CN2CCCCC2)O1` (racemic) [compound 559, rac-3-(2-methylpyrrolidin-3-yl)-5-(piperidin-1-ylmethyl)-5,6-dihydro-1,4,2-dioxazine], for which the “GBA EC1.5” value stood at 16 µM and the Emax was 251%.
In the same order, the values of `CN(C)CC1(C2=NOCC(CN3CCCCC3)O2)CCN(C)C1` (racemic) [compound 826, rac-N,N-dimethyl-1-(1-methyl-3-(5-(piperidin-1-ylmethyl)-5,6-dihydro-1,4,2-dioxazin-3-yl)pyrrolidin-3-yl)methanamine] are 7 µM and 190%.
In the same order, the values of `CC(C)N1CCC(C2=NOCC(CN3CCCCC3)O2)CC1` (racemic) [compound 719, rac-3-(1-isopropylpiperidin-4-yl)-5-(piperidin-1-ylmethyl)-5,6-dihydro-1,4,2-dioxazine] are 10 µM and 242%.
In the same order, the values of `CN1C[C@@H](O)C[C@H](C2=NOCC(CN3CCCCC3)O2)C1` (relative stereo) [compound 724, rac-rel-(3R,5R)-1-methyl-5-(5-(piperidin-1-ylmethyl)-5,6-dihydro-1,4,2-dioxazin-3-yl)piperidin-3-ol] are 16 µM and 274%.
Take `CN1CCCC(C2=NOCC(CN3CCCCC3)O2)C1` (racemic) [compound 648, rac-3-(1-methylpiperidin-3-yl)-5-(piperidin-1-ylmethyl)-5,6-dihydro-1,4,2-dioxazine]: the “GBA EC1.5” value was found to be 4.3 µM and the Emax worked out at 201%.
Turning to `CC(N)C(=O)N1CCC(C2=NOCC(CN3CCCCC3)O2)CC1` (racemic) [compound 748, rac-2-amino-1-(4-(5-(piperidin-1-ylmethyl)-5,6-dihydro-1,4,2-dioxazin-3-yl)piperidin-1-yl)propan-1-one], the “GBA EC1.5” value amounted to 16 µM and the Emax amounted to 283%.
In the same order, the values of `C1CCN(CC2CON=C(C3C4CNC3C4)O2)CC1` (racemic) [compound 548, rac-3-(2-azabicyclo[2.1.1]hexan-5-yl)-5-(piperidin-1-ylmethyl)-5,6-dihydro-1,4,2-dioxazine] are 21 µM and 281%.
In the same order, the values of `CC1(C2=NOCC(CN3CCC(F)(F)CC3)O2)CCNCC1` (racemic) [compound 673, rac-5-((4,4-difluoropiperidin-1-yl)methyl)-3-(4-methylpiperidin-4-yl)-5,6-dihydro-1,4,2-dioxazine] are 49 µM and 151%.
In the same order, the values of `CN1CCCC1C1=NOCC(CN2CCCCC2)O1` (stereo not drawn) [compound 695] are 50 µM and 111%.
`CN(C)c1ccc(CC2(C3=NOCC(CN4CCCCC4)O3)CCNCC2)cn1` (stereo not drawn) [compound 543]: the “GBA EC1.5” value came to 3 µM and the Emax is 138%.
On to `CN(C)C(=O)N1CCC(C2=NOCC(CN3CCCCC3)O2)C1` (stereo not drawn) [compound 675], for which the “GBA EC1.5” value was found to be 50 µM and the Emax turned out to be 102%.
In the same order, the values of `FC1(F)CNCCC1C1=NOCC(CN2CCCCC2)O1` (stereo not drawn) [compound 636] are 50 µM and 126%.
Take `FC(F)(F)CN1CCCC(CC2=NOCC(CN3CCCCC3)O2)C1` (stereo not drawn) [compound 587]: the “GBA EC1.5” value turned out to be 50 µM and the Emax worked out at 100%.
`COc1ncc(CC2(C3=NOC(C)C(CN4CCCCC4)O3)CCN(C)C2)cc1Cl` (stereo not drawn) [compound 646]: the “GBA EC1.5” value came to 50 µM and the Emax was determined as 112%.
In the same order, the values of `c1cnn(C2(C3=NOCC(CN4CCCCC4)O3)CCNCC2)c1` (stereo not drawn) [compound 848] are 2 µM and 311%.
In the same order, the values of `c1cc2n(n1)CCC(C1=NOCC(CN3CCCCC3)O1)C2` (stereo not drawn) [compound 656] are 50 µM and 123%.
In the same order, the values of `C[C@]1(C2=NOC[C@@H](CN3CCCCC3)O2)CCCNC1` [compound 884] are 6 µM and 207%.
For the molecule `C1CCN(CC2CON=C(C3(C4CCOCC4)CCNC3)O2)CC1` (racemic) [compound 583, rac-5-(piperidin-1-ylmethyl)-3-(3-(tetrahydro-2H-pyran-4-yl)pyrrolidin-3-yl)-5,6-dihydro-1,4,2-dioxazine], the “GBA EC1.5” value turned out to be 14 µM and the Emax was determined as 188%.
Turning to `COC1CCN(C)CC1C1=NOCC(CN2CCCCC2)O1` (racemic) [compound 700, rac-3-(4-methoxy-1-methylpiperidin-3-yl)-5-(piperidin-1-ylmethyl)-5,6-dihydro-1,4,2-dioxazine], the “GBA EC1.5” value was 15 µM and the Emax is 270%.
In the same order, the values of `C[C@@H]1CC(C2=NOCC(CN3CCCCC3)O2)C[C@H](C)N1` (mixture of isomers) [compound 633, rac-3-((2R,6S)-2,6-dimethylpiperidin-4-yl)-5-(piperidin-1-ylmethyl)-5,6-dihydro-1,4,2-dioxazine] are 5 µM and 226%.
In the same order, the values of `CN(C)[C@H]1CNC[C@H]1C1=NOCC(CN2CCCCC2)O1` (mixture of isomers) [compound 766, rac-rel-cis-(3R,4R)—N,N-dimethyl-4-(5-(piperidin-1-ylmethyl)-5,6-dihydro-1,4,2-dioxazin-3-yl)pyrrolidin-3-amine] are 38 µM and 136%.
In the same order, the values of `CN1CCC(C2=NOCC(CN3CCCCC3)O2)C1` (stereo not drawn) [compound 629] are 11 µM and 247%.
Consider `C1CCN(CC2CON=C(C34CNC(C3)C4)O2)CC1` (racemic) [compound 527, rac-3-(2-azabicyclo[2.1.1]hexan-4-yl)-5-(piperidin-1-ylmethyl)-5,6-dihydro-1,4,2-dioxazine], for which the “GBA EC1.5” value worked out at 26 µM and the Emax turned out to be 187%.
In the same order, the values of `c1nc(C2CCCNC2)sc1C1=NOCC(CN2CCCCC2)O1` (stereo not drawn) [compound 875] are 5 µM and 165%.
In the same order, the values of `CN(C)C(=O)[C@@]12CC[C@]1(C1=NOCC(CN3CCCCC3)O1)CNC2` (relative stereo) [compound 765, rac-rel-(1R,5S)—N,N-dimethyl-5-(5-(piperidin-1-ylmethyl)-5,6-dihydro-1,4,2-dioxazin-3-yl)-3-azabicyclo[3.2.0]heptane-1-carboxamide] are 29 µM and 151%.
In the same order, the values of `NCC(=O)N1CCC(C2=NOCC(CN3CCCCC3)O2)CC1` (racemic) [compound 787, rac-2-amino-1-(4-(5-(piperidin-1-ylmethyl)-5,6-dihydro-1,4,2-dioxazin-3-yl)piperidin-1-yl)ethan-1-one] are 42 µM and 193%.
Turning to `CN1CCC(C2=NOCC(CN3CCCCC3)O2)CC1=O` (stereo not drawn) [compound 676], the “GBA EC1.5” value is 50 µM and the maximal response (Emax) worked out at 120%.
In the same order, the values of `CC1(C2=NOCC(CN3CCCCC3)O2)CNCCO1` (racemic) [compound 480, rac-3-(2-methylmorpholin-2-yl)-5-(piperidin-1-ylmethyl)-5,6-dihydro-1,4,2-dioxazine] are 16 µM and 273%.
`O=C1NCCC1C1=NOCC(CN2CCCCC2)O1` (stereo not drawn) [compound 637]: the “GBA EC1.5” value came to 50 µM and the Emax stood at 111%.
`C1CCN(CC2CON=C(C3CC4CNCC3O4)O2)CC1` (stereo not drawn) [compound 862]: the “GBA EC1.5” value came out at 15 µM and the Emax came to 212%.

Source of the values: patent US20240390383A1, “DIOXAZINES AND THEIR USE IN TREATMENT OF GBA-RELATED DISEASES” (ZEVRA DENMARK A/S, priority 2021, published 2024).
